Test results as given in patent US20260008784A1 (VASTHERA CO., LTD., priority 2022, published 2026).

How the values were obtained:
NIH-3T3 cells = experiment: Intracellular H2O2-eliminating activity (CM-H2DCF-DA fluorescence); type: cell-based; details: Mus musculus, NIH3T3, glucose oxidase, concentration at 50% reduction of intracellular H2O2
Description: The activity of test compounds in present invention to eliminate intracellular H2O2 was measured as follows. NIH-3T3 cells (ATCC) were seeded in a 35-mm culture dish at 2×10^5 cells/well. After culture for 24 hours, cells were serum-starved with phenol red free-basal DMEM containing 0.5% FBS for 6 h. Starved NIH 3T3 cells were pretreated with compounds diluted with phenol red free-basal DMEM at concentrations ([…]) for 30 min, followed by treatment with 20 mU of glucose oxidase (Gox) for 30 min. A reactive oxygen species-sensitive fluorescence dye, carboxymethyl-dichlorofluorescein-diacetate (CM-H2DCF-DA), which was prepared in 1 mM DMSO stock and diluted 500 times in phenol red free-basal DMEM, was added to the cells and incubated for 5 min. Then, cells were quickly rinsed with basal medium. Images were taken at excitation 497 nm/emission 518 nm settings using a fluorescence microscope. Three images at 10× magnification per sample were obtained, and fluorescence intensities from 30 or more individual cells per image were averaged.
The intracellular H2O2-eliminating activity of test compounds in present invention was measured using a live-cell imaging fluorescence probe (CM-HaDCF-DA). H2O2-eliminating activity was measured depending on ascending concentrations of the test compound and expressed as the percent of activity compared to the untreated control group. EC50 represents the concentration of test compound at 50% reduction of intracellular H2O2.

[1] = Measurement of redox potential (DTT redox buffers, HPLC); type: physicochemical; details: DTT(Red)/DTT(Ox) redox buffers, 3 h, 30° C., 50% reduction of test compound
[2] = tested on: human pulmonary artery smooth muscle cell (PASMC); experiment: PDGF-induced proliferation assay, PASMC (PrxII siRNA); type: cell-based; details: for Degree of PASMC proliferation: PDGF-BB 25 ng/mL, percent of untreated control; for IC50: Homo sapiens, PASMC, 50% growth inhibition, PDGF-stimulated

Description for in vitro: Cytotoxicity tests were performed against vascular endothelial cells, vascular smooth muscle cells and hepatocytes. After treatment with ascending concentrations of each compound, the concentration of test compound corresponding to 50% cell viability (CC50) was measured.

| Structure (SMILES) | EC50 (NIH-3T3 cells) [nM] | Midpoint redox potential (E m) [1] [mV] | Degree of PASMC proliferation ([2]; 2.5 nM) [%] | Degree of PASMC proliferation ([2]; 5 nM) [%] | Degree of PASMC proliferation ([2]; 10 nM) [%] | Degree of PASMC proliferation ([2]; 25 nM) [%] | Degree of PASMC proliferation ([2]; 50 nM) [%] | Degree of PASMC proliferation ([2]; 100 nM) [%] | IC50 [2] [nM] | CC50 (in vitro) [nM] |
| --- | --- | --- | --- | --- | --- | --- | --- | --- | --- | --- |
| CN1C(=O)C2(C)SSCC1C(=O)N2C (centres unmarked) [Compound 1, 1,6,8-trimethyl-2,3-dithia-6,8-diazabicyclo[3.2.2]nonane-7,9-dione] | 8.25 | −285.25 | 70.8 | 49.8 | 29.4 | 14.3 | 0.0 | 0.0 | 5.01 | 230000 |
| CN1C(=O)C2CSSC1(C)C(=O)N2Cc1ccc2ccccc2n1 (centres unmarked) [Compound 5, 1,8-dimethyl-6-(quinolin-2-ylmethyl)-2,3-dithia-6,8-diazabicyclo[3.2.2]nonane-7,9-dione] | 7.77 | −290.3 | 71.3 | 48.3 | 37.5 | 26.8 | 1.9 | 2.5 | 5.64 | > 500000 |
| O=C1C2CSSC3(COCCN13)C(=O)N2Cc1ccccc1 (centres unmarked) [Compound 8, 12-benzyltetrahydro-5H,10H-4,10a-(epiminomethano)[1,4]oxazino[3,4-c][1,2,4]dithia zepine-5,11-dione] | 6.57 | −272.6 | 57.7 | 41.7 | 24.8 | 5.7 | 0.0 | 0.0 | 3.52 | 312000 |
| CCN1C(=O)C2(C)SSCC1C(=O)N2CC (centres unmarked) [Compound 20, 6,8-diethyl-1-methyl-2,3-dithia-6,8-diazabicyclo[3.2.2]nonane-7,9-dione] |  | −296.79 | 82.2 | 51.5 | 31.6 | 21.1 | 7.3 | 5.2 | 6.17 |  |
